# Patent publication US11691969B2, “Pyridazinones as PARP7 inhibtors” (Ribon Therapeutics, Inc., priority 2019, dated 2023)
# Molecular target: PARP7 (Homo sapiens (Human), UniProt Q7Z3E1)
# Experiment: TR-FRET assay: displacement of biotinylated Probe A from the TIPARP active site (Enzymatic Assay for Inhibition of PARP7)
# Type: binding
# Details: TIPARP 6 nM, Probe A 2 nM, 25° C.
# Procedure, shortened: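 6 nM His-tagged TIPARP and 2 nM biotinylated Probe A preincubated with compound 30 min at 25 °C in HEPES pH 8 buffer, then 4 nM ULight-anti-6×His and 0.25 nM Eu-streptavidin added for 30 min more. 665/615 nm ratio normalised to DMSO and 100 μM reference inhibitor controls; IC50 from 4-parameter fit.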
# PARP7, sequence (Q7Z3E1 whole entry): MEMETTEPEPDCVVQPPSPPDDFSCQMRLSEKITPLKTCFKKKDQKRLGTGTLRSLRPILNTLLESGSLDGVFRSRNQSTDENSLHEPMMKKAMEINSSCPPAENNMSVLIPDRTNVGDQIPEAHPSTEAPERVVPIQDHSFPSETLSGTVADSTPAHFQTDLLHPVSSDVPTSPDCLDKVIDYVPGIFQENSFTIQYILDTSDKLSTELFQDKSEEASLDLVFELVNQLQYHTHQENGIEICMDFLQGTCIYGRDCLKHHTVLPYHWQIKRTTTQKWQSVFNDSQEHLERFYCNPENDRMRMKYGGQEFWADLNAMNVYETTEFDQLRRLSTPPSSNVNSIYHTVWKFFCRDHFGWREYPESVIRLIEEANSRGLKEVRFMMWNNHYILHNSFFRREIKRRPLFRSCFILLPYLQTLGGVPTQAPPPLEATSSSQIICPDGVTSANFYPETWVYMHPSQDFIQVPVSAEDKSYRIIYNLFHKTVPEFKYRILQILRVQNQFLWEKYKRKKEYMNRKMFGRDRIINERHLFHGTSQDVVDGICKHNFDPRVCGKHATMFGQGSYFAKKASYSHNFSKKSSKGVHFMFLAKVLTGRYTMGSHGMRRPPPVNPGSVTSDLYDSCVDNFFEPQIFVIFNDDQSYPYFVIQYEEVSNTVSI
row,IC50 [nM],SMILES
1,100 to 1000,"COC[C@@H](CO[C@H]1CCN(C2CCN(c3ncc(C)cn3)CC2)C1=O)Oc1cn[nH]c(=O)c1C(F)(F)F [Example 52A, 5-(((S)-1-methoxy-3-(((S)-1-(1-(5-methylpyrimidin-2-yl)piperidin-4-yl)-2-oxopyrrolidin-3-yl)oxy)propan-2-yl)oxy)-4-(trifluoromethyl)pyridazin-3(2H)-one]"
2,< 100,"COC[C@@H](CO[C@@H]1CCN(C2CCN(c3ncc(C)cn3)CC2)C1=O)Oc1cn[nH]c(=O)c1C(F)(F)F [Example 52B, 5-(((S)-1-methoxy-3-(((R)-1-(1-(5-methylpyrimidin-2-yl)piperidin-4-yl)-2-oxopyrrolidin-3-yl)oxy)propan-2-yl)oxy)-4-(trifluoromethyl)pyridazin-3(2H)-one]"
3,< 100,"COC[C@@H](CO[C@@H]1CCN(C2CCN(c3ncc(C)cn3)CC2)C1=O)Nc1cn[nH]c(=O)c1C(F)(F)F [Example 53, 5-(((S)-1-methoxy-3-(((R)-1-(1-(5-methylpyrimidin-2-yl)piperidin-4-yl)-2-oxopyrrolidin-3-yl)oxy)propan-2-yl)amino)-4-(trifluoromethyl)pyridazin-3(2H)-one]"
4,< 100,"COC[C@@H](CO[C@@H]1CCN(C2CCN(c3ncc(C#N)s3)CC2)C1=O)Nc1cn[nH]c(=O)c1C(F)(F)F [Example 54, 2-(4-((R)-3-((S)-3-methoxy-2-((6-oxo-5-(trifluoromethyl)-1,6-dihydropyridazin-4-yl)amino)propoxy)-2-oxopyrrolidin-1-yl)piperidin-1-yl)thiazole-5-carbonitrile]"
5,≥ 1000,"COC[C@@H](CO[C@H]1CCN(C2CCN(c3ccc(C#N)cn3)CC2)C1=O)Oc1cn[nH]c(=O)c1Br [Example 55A, 6-(4-((S)-3-((S)-2-((5-bromo-6-oxo-1,6-dihydropyridazin-4-yl)oxy)-3-methoxypropoxy)-2-oxopyrrolidin-1-yl)piperidin-1-yl)nicotinonitrile]"
6,< 100,"COC[C@@H](CO[C@@H]1CCN(C2CCN(c3ccc(C#N)cn3)CC2)C1=O)Oc1cn[nH]c(=O)c1Br [Example 55B, 6-(4-((R)-3-((S)-2-((5-bromo-6-oxo-1,6-dihydropyridazin-4-yl)oxy)-3-methoxypropoxy)-2-oxopyrrolidin-1-yl)piperidin-1-yl)nicotinonitrile]"
7,≥ 1000,"COC[C@@H](CO[C@H]1CCN(C2CCN(c3ncc(C(F)(F)F)cn3)CC2)C1=O)Oc1cn[nH]c(=O)c1Br [Example 56A, 4-Bromo-5-(((S)-1-methoxy-3-(((S)-2-oxo-1-(1-(5-(trifluoromethyl)pyrimidin-2-yl)piperidin-4-yl)pyrrolidin-3-yl)oxy)propan-2-yl)oxy)pyridazin-3(2H)-one]"
8,< 100,"COC[C@@H](CO[C@@H]1CCN(C2CCN(c3ncc(C(F)(F)F)cn3)CC2)C1=O)Oc1cn[nH]c(=O)c1Br [Example 56B, 4-Bromo-5-(((S)-1-methoxy-3-(((R)-2-oxo-1-(1-(5-(trifluoromethyl)pyrimidin-2-yl)piperidin-4-yl)pyrrolidin-3-yl)oxy)propan-2-yl)oxy)pyridazin-3(2H)-one]"
9,< 100,"C[C@@H](CO[C@@H]1CCN([C@H]2CCN(c3ncc(C(F)(F)F)cn3)C[C@@H]2O)C1=O)Nc1cn[nH]c(=O)c1C(F)(F)F [Example 58, 5-(((S)-1-(((R)-1-((3S,4S)-3-hydroxy-1-(5-(trifluoromethyl)pyrimidin-2-yl)piperidin-4-yl)-2-oxopyrrolidin-3-yl)oxy)propan-2-yl)amino)-4-(trifluoromethyl)pyridazin-3(2H)-one]"
10,< 100,"C[C@@H](CO[C@@H]1CCN([C@@H]2CCN(c3ncc(C(F)(F)F)cn3)C[C@@H]2O)C1=O)Nc1cn[nH]c(=O)c1C(F)(F)F [Example 59, 5-(((S)-1-(((R)-1-((3S,4R)-3-hydroxy-1-(5-(trifluoromethyl)pyrimidin-2-yl)piperidin-4-yl)-2-oxopyrrolidin-3-yl)oxy)propan-2-yl)amino)-4-(trifluoromethyl)pyridazin-3(2H)-one]"
11,< 100,"C[C@@H](CO[C@@H]1CCN([C@H]2CCN(c3ncc(C(F)(F)F)cn3)C[C@H]2O)C1=O)Nc1cn[nH]c(=O)c1C(F)(F)F [Example 60, 5-(((S)-1-(((R)-1-((3R,4S)-3-hydroxy-1-(5-(trifluoromethyl)pyrimidin-2-yl)piperidin-4-yl)-2-oxopyrrolidin-3-yl)oxy)propan-2-yl)amino)-4-(trifluoromethyl)pyridazin-3(2H)-one]"
12,< 100,"C[C@H](Nc1cn[nH]c(=O)c1C(F)(F)F)C(=O)N[C@@H]1CCN(C2CCN(c3ncc(C(F)(F)F)cn3)CC2)C1=O [Example 61, (S)—N—((R)-2-oxo-1-(1-(5-(trifluoromethyl)pyrimidin-2-yl)piperidin-4-yl)pyrrolidin-3-yl)-2-((6-oxo-5-(trifluoromethyl)-1,6-dihydropyridazin-4-yl)amino)propanamide]"
13,< 100,"O=C1[C@H](OC[C@H](CNCC(F)(F)F)Nc2cn[nH]c(=O)c2C(F)(F)F)CCN1C1CCN(c2ncc(C(F)(F)F)cn2)CC1 [Example 62, 5-(((S)-1-(((R)-2-oxo-1-(1-(5-(trifluoromethyl)pyrimidin-2-yl)piperidin-4-yl)pyrrolidin-3-yl)oxy)-3-((2,2,2-trifluoroethyl)amino)propan-2-yl)amino)-4-(trifluoromethyl)pyridazin-3(2H)-one]"
14,< 100,"O=C1[C@H](OC[C@H](CO)Nc2cn[nH]c(=O)c2C(F)(F)F)CCN1C1CCN(c2ncc(C(F)(F)F)cn2)CC1 [Example 63, 5-(((S)-1-hydroxy-3-(((R)-2-oxo-1-(1-(5-(trifluoromethyl)pyrimidin-2-yl)piperidin-4-yl)pyrrolidin-3-yl)oxy)propan-2-yl)amino)-4-(trifluoromethyl)pyridazin-3(2H)-one]"
15,< 100,"C[C@@H](CO[C@H]1CCN(C2CCN(c3ncc(C(F)(F)F)cn3)CC2O)C1=O)Oc1cn[nH]c(=O)c1C(F)(F)F (stereo partly drawn) [Example 64A, Syn-5-(((2S)-1-(((3S)-1-(3-hydroxy-1-(5-(trifluoromethyl)pyrimidin-2-yl)piperidin-4-yl)-2-oxopyrrolidin-3-yl)oxy)propan-2-yl)oxy)-4-(trifluoromethyl)pyridazin-3(2H)-one]"
16,< 100,"C[C@@H](CO[C@@H]1CCN(C2CCN(c3ncc(C(F)(F)F)cn3)CC2O)C1=O)Oc1cn[nH]c(=O)c1C(F)(F)F (stereo partly drawn) [Example 64B, Syn-5-(((2S)-1-(((3R)-1-(3-hydroxy-1-(5-(trifluoromethyl)pyrimidin-2-yl)piperidin-4-yl)-2-oxopyrrolidin-3-yl)oxy)propan-2-yl)oxy)-4-(trifluoromethyl)pyridazin-3(2H)-one]"
17,< 100,"C[C@@H](COC1CCN([C@@H]2CCN(c3ncc(C(F)(F)F)cn3)C[C@H]2O)C1=O)Oc1cn[nH]c(=O)c1C(F)(F)F (stereo partly drawn) [Example 65, 5-(((2S)-1-((1-((3R,4R)-3-hydroxy-1-(5-(trifluoromethyl)pyrimidin-2-yl)piperidin-4-yl)-2-oxopyrrolidin-3-yl)oxy)propan-2-yl)oxy)-4-(trifluoromethyl)pyridazin-3(2H)-one]"
18,< 100,"CC(=O)NC[C@@H](CO[C@@H]1CCN(C2CCN(c3ncc(C(F)(F)F)cn3)CC2)C1=O)Nc1cn[nH]c(=O)c1C(F)(F)F [Example 66, N—((S)-3-(((R)-2-oxo-1-(1-(5-(trifluoromethyl)pyrimidin-2-yl)piperidin-4-yl)pyrrolidin-3-yl)oxy)-2-((6-oxo-5-(trifluoromethyl)-1,6-dihydropyridazin-4-yl)amino)propyl)acetamide]"
